For eight molecules, GI50 and TGI results are on record in PubChem BioAssay (NCI).

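Tested at 5 concentrations; 48 h exposure; 96-well plates; endpoints linearly interpolated, else capped at highest concentration. The concentration for 50% growth inhibition is given as GI50. TGI: total growth inhibition.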

Some test systems named below: 786-0 renal; HCT-116 colon; MALME-3M melanoma; NCI-H226 lung; NCI-H23 lung; NCI-H522 lung; RPMI-8226 leukemia; SF-539 CNS; TK-10 renal; UO-31 renal.
What all share (assay): growth of human tumour cells (NCI), 48 h

In the case of `CN1CCN(C(=O)c2ccc(NC(=O)Nc3ccc(N(C)c4ccnc(Nc5ccc(CS(C)(=O)=O)cc5)n4)cc3)cc2)CC1`, the GI50 was greater than 25 µM in the test on 786-0 renal; 10.1 µM in the test on HCT-116 colon; greater than 15 µM with MALME-3M melanoma; 6.79 µM in the test with NCI-H226 lung; 19 µM in the test with NCI-H23 lung; 7.65 µM in the test on NCI-H522 lung. For the same molecule, the GI50 was 8.85 µM in the test on RPMI-8226 leukemia, 11.2 µM with SF-539 CNS, greater than 25 µM in the test on TK-10 renal and greater than 25 µM in the test with UO-31 renal. The TGI in the test with 786-0 renal, with HCT-116 colon, in the test on MALME-3M melanoma, with NCI-H226 lung, with NCI-H23 lung and in the test on NCI-H522 lung was greater than 25 µM throughout. Moreover, the TGI in the test with RPMI-8226 leukemia, with SF-539 CNS, with TK-10 renal and with UO-31 renal was greater than 25 µM throughout.
With `NCCCNc1ccc2c(c1)[n+]([O-])c1ccccc1[n+]2[O-]`, the TGI with 786-0 renal was greater than 100 µM; with HCT-116 colon, 63.7 µM; in the test on MALME-3M melanoma it was 46.6 µM; with NCI-H226 lung it was 45.5 µM; with NCI-H23 lung it was 97.5 µM; in the test with NCI-H522 lung, 30.7 µM. Besides, the TGI in the test on RPMI-8226 leukemia was 54.4 µM; in the test on SF-539 CNS, 53.9 µM; in the test with TK-10 renal it was greater than 100 µM; with UO-31 renal, greater than 100 µM.
In the case of `Nn1c(CCCl)nc2c(Br)cc(Br)cc2c1=O`, the TGI was 81 µM in the test on 786-0 renal; 53 µM in the test with HCT-116 colon; greater than 100 µM in the test on MALME-3M melanoma; greater than 75.1 µM in the test with NCI-H226 lung; 62.8 µM with NCI-H23 lung; 38.5 µM in the test on NCI-H522 lung. The TGI in the test with RPMI-8226 leukemia was 58.5 µM; with SF-539 CNS, greater than 91.4 µM; in the test with TK-10 renal, greater than 100 µM; in the test with UO-31 renal, greater than 75.6 µM.
For the molecule `Nc1ccccc1NC(=O)c1ccc(CSc2nc(N3CCOCC3)c3cccn3n2)cc1`, the GI50 in the test on 786-0 renal was 0.988 µM; in the test with HCT-116 colon it was 0.379 µM; with MALME-3M melanoma, 0.834 µM; with NCI-H226 lung, 1.26 µM; in the test with NCI-H23 lung, 1.52 µM; with NCI-H522 lung, 0.339 µM. The GI50 in the test with RPMI-8226 leukemia is 0.311 µM; with SF-539 CNS it was 0.773 µM; in the test on TK-10 renal, 0.163 µM; in the test on UO-31 renal, 0.412 µM. For the same molecule, the TGI in the test on 786-0 renal was 5.48 µM; in the test on HCT-116 colon, greater than 100 µM; in the test with MALME-3M melanoma it was greater than 100 µM; in the test with NCI-H226 lung, 3.95 µM; with NCI-H23 lung, greater than 100 µM; in the test with NCI-H522 lung, 2.09 µM. Besides, the TGI is 1.26 µM in the test with RPMI-8226 leukemia, greater than 100 µM with SF-539 CNS, 1.61 µM with TK-10 renal and 3.61 µM in the test on UO-31 renal.
With `O=S(=O)(NCCNc1cc(-c2cn(-c3ccccc3)nc2-c2cccc(O)c2)ccn1)c1ccc(C(F)(F)F)cc1`, the GI50 in the test with 786-0 renal was 1.72 µM; in the test on HCT-116 colon, 2.29 µM; in the test on MALME-3M melanoma, 1.68 µM; with NCI-H226 lung it was 5.36 µM; with NCI-H23 lung, 2.97 µM; with NCI-H522 lung it was 1.67 µM. Also, the GI50 is 2.77 µM with RPMI-8226 leukemia, 1.59 µM with SF-539 CNS, 2.81 µM in the test with TK-10 renal and 1.81 µM in the test on UO-31 renal. The TGI in the test on 786-0 renal stood at 4.45 µM; in the test on HCT-116 colon, 7.94 µM; in the test on MALME-3M melanoma it was 4.57 µM; in the test with NCI-H226 lung, 30.9 µM; with NCI-H23 lung it was 15.4 µM; in the test with NCI-H522 lung, 3.8 µM. The TGI worked out at 7.85 µM in the test with RPMI-8226 leukemia, 3.48 µM in the test on SF-539 CNS, 18.7 µM in the test on TK-10 renal and 4.28 µM in the test on UO-31 renal.
In the case of `OCCN1CCN(CCO)Cc2ccccc2OCCOc2ccccc2C1`, the TGI with 786-0 renal, in the test with HCT-116 colon, with MALME-3M melanoma, with NCI-H226 lung, in the test with NCI-H23 lung and in the test on NCI-H522 lung was greater than 100 µM each time. Moreover, the TGI in the test on RPMI-8226 leukemia, in the test with SF-539 CNS, in the test with TK-10 renal and in the test on UO-31 renal was greater than 100 µM in each case.
As to `CC1=CC2=C(OCO1)C(=O)c1ccccc1C2=O`, the TGI in the test with 786-0 renal was greater than 56.9 µM; with HCT-116 colon, 19.6 µM; in the test on MALME-3M melanoma it was 6.48 µM; in the test with NCI-H226 lung, 30.2 µM; in the test with NCI-H23 lung, 8.06 µM; in the test with NCI-H522 lung it was 8.87 µM. The TGI is greater than 100 µM with RPMI-8226 leukemia, 12.8 µM in the test on SF-539 CNS, greater than 81.3 µM in the test with TK-10 renal and 28.7 µM in the test on UO-31 renal.
Consider `COC(=O)C1=CC(O)CCC1c1ccc(OC)cc1` (stereo not given), for which the TGI with 786-0 renal, with HCT-116 colon, with MALME-3M melanoma, with NCI-H226 lung, in the test on NCI-H23 lung and in the test on NCI-H522 lung was greater than 100 µM in each case. Also, the TGI in the test with RPMI-8226 leukemia, in the test with SF-539 CNS, with TK-10 renal and with UO-31 renal was greater than 100 µM throughout.
